According to patent EP1862454A1, “Novel compounds, isomer thereof or pharmaceutically acceptable salts thereof as vanilloid receptor antagonist; and a pharmaceutical composition containing the same” (Amorepacific Corporation, priority 2006, dated 2007):

Legend:
Male ICR mice = assay: Analgesic activity test: mouse writhing test induced with phenyl-p-quinone; assay type: in vivo; conditions: writhes counted vs control group
Experimental: 2. Analgesic activity test: Mouse writhing test by inducing with phenyl-p-quinone
Male ICR mice (mean body weight 25g) were maintained in a controlled lighting environment (12 h on/ 12 h off) for experiment. Animals received an intraperitoneal injection of 0.3ml of the chemical irritant phenyl-p-quinone (dissolved in saline containing 5% ethanol to be a dose of 4.5mg/kg) and 6 mins later, the number of abdominal constrictions was counted in the subsequent 6 mins period. Animals (10 animals/group) received 0.2ml of test compounds solution in vehicle of ethanol/Tween 80/saline (10/10/80) intraperitoneally 30 min before the injection of phenyl-p-quinone. A reduction in the number of writhes responding to the test drug compound relative to the number responding in saline control group was considered to be indicative of an analgesic effect. Analgesic effect was calculated by % inhibition equation (% inhibition=(C-T)/C x 100), wherein C and T represent the number of writhes in control and compound-treated group, respectively (Table 2).

vanilloid receptor = target: T1, vanilloid receptor (Rattus norvegicus, UniProt O35433); assay: 45Ca influx test in primary culture of neonatal rat DRG neurons, inhibition of the capsaicin response; assay type: cell-based, SD rats; conditions: DRG nerve cells; capsaicin 0.5 µM; 45Ca 10 µCi/ml; 10 mins at room temperature; read-out: Antagonist Calcium Uptake Test (IC50)
T1 construct: DRG nerve cells from the primary culture of 2 days were equilibrated; endogenous in cells; host or cells: primary culture of dorsal root ganglion neurons from neonatal SD rats
Experimental: 1) Separation of spinal dorsal root ganglia (DRG) in newborn rats and primary culture thereof
Neonatal (2-3 day old or younger than 2-3 day old) SD rats were put in ice for 5 minutes to anesthetize and disinfected with 70% ethanol. DRG of all part of spinal cord were dissected (Wood et al., 1988, J. Neurosci. 8, pp3208-3220) and collected in DME/F12 medium to which 1.2g/l sodium bicarbonate and 50mg/l gentamycin were added. The DRG were incubated sequentially at 37°C for 30 min in 200 U/ml collagenase and 2.5mg/ml trypsin, separately. The ganglia were washed twice with DME/F12 medium supplemented with 10% horse serum, triturated through a fire-polished Pasteur pipette, filtered through Nitex 80 membrane to obtain single cell suspension and the suspension was washed once more. This was subjected to centrifugation, then resuspended in cell culture medium at certain level of cell density. As the cell culture medium, DME/F12 medium supplemented with 10% horse serum was diluted with identical medium conditioned by C6 glioma cells 2 days on a confluent monolayer (1:1), and NGF (Nerve Growth Factor) was added to adjust 200ng/ml as final concentration. After the cells were grown for 2 days in medium where cytosine arabinoside (Ara-C, 100 µM) was added to kill dividing nonneuronal cells, medium was changed to one without Ara-C. The resuspended cells were plated at a density of 1500-2000 neurons/well onto Terasaki plates previously coated with 10 µg/ml poly-D-ornithine.
2) ^45 Ca influx experiments
DRG nerve cells from the primary culture of 2 days were equilibrated by washing 4 times with HEPES (10mM, pH 7.4)-buffered Ca ^2+, Mg^2+-free HBSS (H-HBSS). The solution in each well was removed from the individual well. Medium containing the test compound plus capsaicin (final concentration 0.5 µM) and ^45Ca (final concentration 10 µCi/ml) in H-HBSS was added to each well and incubated at room temperature for 10 mins. Terasaki plates were washed five times with H-HBSS and dried at room temperature. To each well, 0.3% SDS (10 µl) was added to elute ^45Ca. After the addition of scintillation cocktail into each well, the amount of ^45Ca influx into neuron was measured by counting radioactivity. Antagonistic activities of test compounds against vanilloid receptor were calculated as percent of the inhibition of maximal response of capsaicin at a concentration of 0.5 µM. […]

T1 sequence (O35433 whole entry): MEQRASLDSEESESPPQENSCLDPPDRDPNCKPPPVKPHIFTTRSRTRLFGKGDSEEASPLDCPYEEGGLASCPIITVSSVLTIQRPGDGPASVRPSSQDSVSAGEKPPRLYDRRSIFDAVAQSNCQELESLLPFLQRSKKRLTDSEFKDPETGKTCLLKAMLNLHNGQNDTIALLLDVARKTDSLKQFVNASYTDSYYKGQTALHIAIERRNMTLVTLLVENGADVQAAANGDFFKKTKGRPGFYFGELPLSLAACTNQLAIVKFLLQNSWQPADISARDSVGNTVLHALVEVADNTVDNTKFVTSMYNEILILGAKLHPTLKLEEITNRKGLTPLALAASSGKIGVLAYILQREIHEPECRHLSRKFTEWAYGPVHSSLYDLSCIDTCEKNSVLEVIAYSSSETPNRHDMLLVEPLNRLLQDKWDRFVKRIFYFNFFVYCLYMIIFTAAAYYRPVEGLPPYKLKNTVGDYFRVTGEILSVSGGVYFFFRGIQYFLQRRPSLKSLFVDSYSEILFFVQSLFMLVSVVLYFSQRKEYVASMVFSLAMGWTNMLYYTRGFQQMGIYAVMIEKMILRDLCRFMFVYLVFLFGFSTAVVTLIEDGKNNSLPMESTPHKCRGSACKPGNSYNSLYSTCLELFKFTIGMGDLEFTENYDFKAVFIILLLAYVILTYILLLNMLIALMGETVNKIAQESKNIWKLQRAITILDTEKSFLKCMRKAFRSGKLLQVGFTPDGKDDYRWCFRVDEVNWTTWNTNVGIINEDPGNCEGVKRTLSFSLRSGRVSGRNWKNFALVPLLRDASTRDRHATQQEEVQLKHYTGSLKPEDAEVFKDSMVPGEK

| Compound | Analgesic effect (%Inhibition) (Male ICR mice; Dose 0.3 mg/kg intraperitoneally 30 min before phenyl-p-quinone (4.5mg/kg)) [%] | IC50 (vanilloid receptor) [nM] | Analgesic effect (%Inhibition) (Male ICR mice; Dose 1 mg/kg intraperitoneally 30 min before phenyl-p-quinone (4.5mg/kg)) [%] |
| --- | --- | --- | --- |
| C=Cc1cc(CNC(=S)NCc2ccc(C(C)(C)C)cc2)ccc1NS(C)(=O)=O [Example 1, N-{4-[3-(4-t-butylbenzyl)thioureido-methyl]-2-vinyl-phenyl} methanesulfonamide] | 93 | 54 | – |
| C=Cc1cc(CNC(=S)NCc2ccc(C(C)(C)C)cc2)cc(C(F)(F)F)c1NS(C)(=O)=O [Example 2, N-{4-[3-(4-t-butylbenzyl)thioureido-methyl]-2-trifluoromethyl-6-vinyl-phenyl}methanesulfonamide] | – | 330 | – |
| C=Cc1cc(CNC(=S)NCc2ccc(C(C)(C)C)cc2)cc(F)c1NS(C)(=O)=O [Example 3, N-{4-[3-(4-t-butylbenzyl)thioureido-methyl]-2-fluoro-6-vinyl-phenyl}methanesulfonamide] | – | 35 | 57 |
| C=Cc1cc(CNC(=S)NCc2ccc(C(C)(C)C)cc2)cc(Cl)c1NS(C)(=O)=O [Example 4, N-{4-[3-(4-t-butylbenzyl)thioureido-methyl]-2-chloro-6-vinyl-phenyl}methanesulfonamide] | – | 93 | – |
| C=Cc1cc(CNC(=S)NCc2ccc(C(C)(C)C)cc2)cc(C)c1NS(C)(=O)=O [Example 5, N-{4-[3-(4-t-butylbenzyl)thioureido-methyl]-2-methyl-6-vinyl-phenyl}methanesulfonamide] | – | 190 | – |
| C=Cc1cc(C(C)NC(=S)NCc2ccc(C(C)(C)C)cc2)cc(F)c1NS(C)(=O)=O (centres unmarked) [Example 6, N-(4-{1-[3-(4-t-butylbenzyl)thioureido]ethyl}-2-fluoro-6-vinyl-phenyl) methanesulfonamide] | – | 120 | – |
